This is an account of results in ChEMBL document CHEMBL1159211, “Antifungal evaluation of pseudolaric acid B, a major constituent of Pseudolarix kaempferi” (J Nat Prod, 1995).

Active and inactive are the calls of the source.

Data set [1] concerns Pseudomonas aeruginosa. The data set can be described thus: Antimicrobial activity against Pseudomonas aeruginosa at 1 mg/mL by agar-well diffusion assay. The class given is functional, organism-based. (A growth-free zone around the sample is the usual read-out of agar diffusion tests.)
Data set [2] deals with Cryptococcus neoformans. The data set can be described thus: Antimicrobial activity against Cryptococcus neoformans at 1 mg/mL by agar-well diffusion assay. The class given is functional.
Data set [3] relates to Candida albicans. The data set is described as follows: Antimicrobial activity against Candida albicans at 1 mg/mL by agar-well diffusion assay. The following applies: for zone of inhibition at 1000 µg/mL: Candida albicans, read-out: IZ. The class given is functional.
In data set [4] the test system is Aspergillus flavus. The data set can be described thus: Antimicrobial activity against Aspergillus flavus at 1 mg/mL by agar-well diffusion assay. It counts as functional.
Data set [5] has as its system Mycobacterium intracellulare. The data set is described as follows: Antimicrobial activity against Mycobacterium intracellular at 1 mg/mL by agar-well diffusion assay. It counts as functional. The following applies: for zone of inhibition at 1000 µg/mL: read-out: IZ.
Data set [6] has as its system Bacillus subtilis. The data set is described as follows: Antimicrobial activity against Bacillus subtilis at 1 mg/mL by agar-well diffusion assay. It counts as functional, organism-based.
Data set [7] concerns Trichophyton mentagrophytes. The data set can be described thus: Antimicrobial activity against Trichophyton mentagrophytes at 1 mg/mL by agar-well diffusion assay. The class given is functional.
For data set [8], the system named is Saccharomyces cerevisiae. The data set can be described thus: Antimicrobial activity against Saccharomyces cerevisiae at 1 mg/mL by agar-well diffusion assay. The class given is functional, organism-based.
The subject of data set [9] is Staphylococcus aureus. The data set can be described thus: Antimicrobial activity against Staphylococcus aureus at 1 mg/mL by agar-well diffusion assay. It counts as functional, organism-based.
Data set [10] relates to Nannizzia gypsea. The data set can be described thus: Antimicrobial activity against Microsporum gypseum at 1 mg/mL by agar-well diffusion assay. The class given is functional.
The subject of data set [11] is Escherichia coli. The data set can be described thus: Antimicrobial activity against Escherichia coli at 1 mg/mL by agar-well diffusion assay. It counts as functional, organism-based.
In data set [12] the test system is Aspergillus fumigatus. The data set can be described thus: Antimicrobial activity against Aspergillus fumigatus at 1 mg/mL by agar-well diffusion assay. It counts as functional.
The subject of data set [13] is Candida albicans. The data set is described as follows: Antifungal activity against Candida albicans B311 infected in CD1 mouse assessed as prolongation of survival time at 10 mg/kg, iv administered 1, 3 and 5 days postinfection. It counts as functional, organism-based. On the set-up: dose 10 mg/kg.
Data set [14] has as its system Candida albicans. The data set can be described thus: Antifungal activity against Candida albicans B311 assessed decrease in number of viable cells at 1 to 10 ug/ml after 24 hrs by time-to kill curve assay. It counts as functional, organism-based.
Data set [15] deals with Candida albicans. The data set is described as follows: Antifungal activity against Candida albicans B311 infected in CD1 mouse assessed as prolongation of survival time at 40 mg/kg, ip administered 7 hrs postinfection and continued for 7 or 14 consecutive days. More on the design: dose 40 mg/kg. It counts as functional, organism-based.
Data set [16] relates to Mus musculus. The data set is described as follows: Toxicity in CD1 mouse assessed as body weight at 40 mg/kg, ip administered for 14 consecutive days measured after day 21. The class given is organism-based. More on the design: dose 40 mg/kg, route intraperitoneal. The conditions noted are these: in vivo.
Data set [17] relates to Mus musculus. The data set is described as follows: Toxicity in CD1 mouse assessed as body weight at 40 mg/kg, ip administered for 14 consecutive days measured after day 14. It counts as organism-based. More on the design: dose 40 mg/kg, route intraperitoneal. The following applies: in vivo.
For data set [18], the system named is Candida parapsilosis. The data set is described as follows: Antifungal activity against Candida parapsilosis ATCC 20224 at 1 mg/mL by agar-well diffusion assay. It counts as functional.
The test system of data set [19] is Mus musculus. The data set can be described thus: Toxicity in CD1 mouse assessed as body weight at 40 mg/kg, ip after day 1. The conditions noted are these: in vivo. It counts as organism-based. More on the design: dose 40 mg/kg, route intraperitoneal.
For data set [20], the system named is Candida albicans. The data set is described as follows: Antifungal activity against Candida albicans ATCC 10231 at 1 mg/mL by agar-well diffusion assay. The class given is functional.
For data set [21], the system named is Starmerella magnoliae. The data set can be described thus: Antifungal activity against Candida magnoliae ATCC 12573 at 1 mg/mL by agar-well diffusion assay. It counts as functional.
The test system of data set [22] is Yarrowia deformans. The data set is described as follows: Antifungal activity against Torulopsis petrophilum ATCC 20225 at 1 mg/mL by agar-well diffusion assay. It counts as functional.
Data set [23] relates to Yarrowia deformans. The data set can be described thus: Antifungal activity against Torulopsis petrophilum ATCC 20225 by twofold serial broth dilution method. It counts as functional. In general terms: In broth dilution the organism is exposed to a series of concentrations in liquid medium.
Data set [24] concerns Candida tropicalis. The data set can be described thus: Antifungal activity against Candida tropicalis ATCC 20326 by twofold serial broth dilution method. The class given is functional.
In data set [25] the test system is Torula. The data set can be described thus: Antifungal activity against Torula cremoris NRRL 7495 by twofold serial broth dilution method. It counts as functional.
The test system of data set [26] is Candida parapsilosis. The data set is described as follows: Antifungal activity against Candida parapsilosis ATCC 20224 by twofold serial broth dilution method. The conditions noted are these: Lodderomyces parapsilosis. It counts as functional.
Data set [27] deals with Candida tropicalis. The data set can be described thus: Antifungal activity against Candida tropicalis ATCC 20021 at 1 mg/mL by agar-well diffusion assay. The class given is functional.
For data set [28], the system named is Candida albicans. The data set can be described thus: Antifungal activity against Candida albicans B311 by twofold serial broth dilution method. The class given is functional.
Data set [29] deals with Candida tropicalis. The data set can be described thus: Antifungal activity against Candida tropicalis ATCC 20021 by twofold serial broth dilution method. It counts as functional.
For data set [30], the system named is Candida tropicalis. The data set is described as follows: Antifungal activity against Candida tropicalis LM 64 by twofold serial broth dilution method. The class given is functional.
Data set [31] has as its system Candida albicans. The data set is described as follows: Antifungal activity against Candida albicans ATCC 10231 by twofold serial broth dilution method. The class given is functional.
The subject of data set [32] is Candida tropicalis. The data set can be described thus: Antifungal activity against Candida tropicalis ATCC 20326 at 1 mg/mL by agar-well diffusion assay. It counts as functional.
Data set [33] relates to Candida albicans. The data set is described as follows: Antifungal activity against Candida stellatoidea SA-I at 1 mg/mL by agar-well diffusion assay. It counts as functional.
Data set [34] concerns Candida albicans. The data set is described as follows: Antifungal activity against Candida albicans B311 at 1 mg/mL by agar-well diffusion assay. The class given is functional.
In data set [35] the test system is Torula. The data set can be described thus: Antifungal activity against Torula cremoris NRRL 7495 at 1 mg/mL by agar-well diffusion assay. It counts as functional.
The subject of data set [36] is Candida albicans. The data set is described as follows: Antifungal activity against Candida stellatoidea SA-I by twofold serial broth dilution method. It counts as functional.
Data set [37] deals with Candida tropicalis. The data set is described as follows: Antifungal activity against Candida tropicalis LM 64 at 1 mg/mL by agar-well diffusion assay. It counts as functional.

Take `COC(=O)C1=CC[C@@]23CC[C@@H]([C@@](C)(/C=C/C=C(\C)C(=O)OC)OC2=O)[C@@]3(OC(C)=O)CC1`: the result in data set [1], in data set [2], in [4], in data set [6], in data set [7] and in data set [8] was inactive. Further, the result in data set [9], in [10], in [11] and in [12] was inactive. In addition, the values for the zone of inhibition at 1000 µg/mL in data set [3] and in [5] were < 1 mm and 1 mm, respectively.
Take `C/C(=C\C=C\[C@@]1(C)OC(=O)[C@]23CC=C(C(=O)O)CC[C@]2(O)[C@H]1CC3)C(=O)O` [DEMETHOXYDEACETOXYPSEUDOLARIC ACID B]: the outcome in data set [1], in [2], in [4], in data set [6], in [8] and in data set [9] was inactive. The outcome in data set [10], in data set [11] and in data set [12] was inactive. In addition, the zone of inhibition at 1000 µg/mL in data set [3] is < 1 mm; in [5] it was 1 mm; in [7] (Trichophyton mentagrophytes, read-out: IZ) it was 3 mm.
As to `COC(=O)C1=CC[C@@]23CC[C@@H]([C@@](C)(/C=C/C=C(\C)C(=O)O)OC2=O)[C@@]3(OC(C)=O)CC1`, the result in data set [13] and in data set [14] was Active. For the same molecule, the result in [1], in data set [2], in data set [4], in [5], in data set [6] and in data set [8] was inactive. Further, the outcome in [9], in [11] and in data set [15] was inactive.
For the molecule `COC(=O)C1=CC[C@@]23CC[C@@H]([C@@](C)(/C=C/C=C(\C)C(=O)[O-])OC2=O)[C@@]3(OC(C)=O)CC1.[Na+]` [SODIUM PSEUDOLARATE B], the “inhibition zone (IZ)” value in data set [3] is reported as 7 mm; in [7], 7 mm; in [10] it was 7 mm; in data set [12], 3 mm.
Consider `CC(=O)O[C@]12CCC(C(=O)O)=CC[C@]13CC[C@H]2[C@@](C)(/C=C/C=C(\C)C(=O)O)OC3=O` [PSEUDOLARIC ACID C2], for which the outcome in data set [1], in data set [2], in data set [4], in [5], in data set [6] and in data set [7] was inactive. Besides, the outcome in [8], in data set [9], in data set [10], in data set [11] and in data set [12] was inactive. Besides, in data set [3], the zone of inhibition at 1000 µg/mL is < 1 mm.
As to `COC(=O)C1=CC[C@@]23CC[C@@H]([C@@](C)(/C=C/C=C(\C)C(=O)[O-])OC2=O)[C@@]3(OC(C)=O)CC1.[K+]` [POTASSIUM PSEUDOLARATE B], the values for the Activity in data set [16], in data set [17] and in data set [19] were 25.6 g, 25.4 g and 24.2 g, respectively. Also, the “inhibition zone (IZ)” value in [18] is recorded as 7 mm; in data set [20] it was 7 mm; in [21], <1 mm; in data set [22], 7 mm; in [3], 7 mm; in data set [27], 7 mm. The “inhibition zone (IZ)” value in data set [7] was 7 mm; in data set [10], 7 mm; in data set [12] it was 3 mm; in data set [32] it was 7 mm; in [33] it was 7 mm; in data set [34] it was 7 mm. The entries for the “inhibition zone (IZ)” value in [35] and in data set [37] were 3 mm and >12 mm, respectively. The MFC (in general, the smallest concentration meeting the test's criterion for killing the fungus) worked out at 12.5 µg/mL in [23]; 6.25 µg/mL in [24]; 12.5 µg/mL in [25]; 25 µg/mL in data set [26]; 6.25 µg/mL in data set [28]; 6.25 µg/mL in data set [29]. Moreover, the MFC in data set [30], in data set [31] and in data set [36] was 6.25 µg/mL throughout. The MIC (in general, the lowest concentration found to suppress growth) in [23] was found to be 0.78 µg/mL; in [24], 1.56 µg/mL; in data set [25], 12.5 µg/mL; in data set [26], 3.12 µg/mL; in data set [28], 3.12 µg/mL; in [29], 3.12 µg/mL. Further, the minimum inhibitory concentration (MIC) in [30] was 0.78 µg/mL; in data set [31], 1.56 µg/mL; in [36], 3.12 µg/mL.
Take `COC(=O)C1=CC[C@@]23CC[C@@H]([C@@](C)(/C=C/C=C(\C)C(=O)O)OC2=O)[C@@]3(O)CC1` [PSEUDOLARIC ACID C]: the result in data set [1], in [6], in data set [7], in data set [8], in [9] and in data set [10] was inactive. The result in data set [11] was inactive. Moreover, the zone of inhibition at 1000 µg/mL in data set [2] (read-out: IZ) came out at 1 mm; in data set [3] it was 1 mm; in [4] (read-out: IZ) it was 1 mm; in [5] it was 1 mm; in [12] (Aspergillus fumigatus, read-out: IZ) it was 1 mm.
